Data set [1] has as its system système nerveux central de la souris. The data set can be described thus: Rotarod test (rotating cylinder) after chlorpromazine. Format: in vivo. Particulars: from the dose of 0,5g par kg. From the text: (§1) Activité du sel acide de calcium de l'acide 2-oxo-1,5- pentane dioîque sur le système nerveux central de la souris.
3. Test du "rotarod" (cylindre tournant)
Dans ce test, la souris tourne sur un cylindre animé d'un mouvement rotatif, perd l'équilibre et tombe après administration de chlorpromazine (CPZ).

For data set [2] the test system is unchanged. The experiment in a line: Antagonism of the muscle-relaxant action of chlorpromazine (CPZ). Format: in vivo.
Excerpt: as §1
2. Antagonisme de l'action myorelaxante de la Chlorpromazine (CPZ)
La chlorpromazine induit une myorelaxation chez la souris. On constate une réduction de 37,5% pour une dose de 1g par kg et une réduction de 62,5% pour une dose de 2g par kg.

Data set [3] shares this test system. The experiment in a line: Catalepsy (prochlorpémazine-induced catatonia). Particulars: catalepsy test. Format: in vivo.
Excerpt: as §1
Ce test a montré que le sel conforme à l'invention s'oppose à l'activité catatonique de la prochlorpémazine.

In another data set the test system is patients. The data set can be described thus: Clinical study: memory disorders, neurotic (anxiophobic) and psychasthenic states, versus placebo. Format: in vivo, homme. Particulars: sixty patients, 4g daily in two doses versus placebo. From the text: 2. Correction des troubles de la mémoire, des états névrotiques (anxiophobiques), et des états psychasténiques

Data set [4] can be described thus: Pharmacokinetic study with C14-labelled salt. Format: in vivo. Particulars: rats, C14-labelled molecule. An excerpt: Dans cette étude, on a administré à des rats le sel conforme à l'invention dont la molécule a été marquée au C^14 radioactif.
In data set [5] the test system is système nerveux central de la souris. The experiment in a line: Reduction of reserpine ptosis. Format: in vivo. Particulars: souris, 0,5g par kg à 1g par kg per os, 1 hour after administration.
Excerpt: as §1
1. Réduction du ptosis réserpinique

For data set [6] the test system is unchanged. The experiment in a line: Reduction of reserpine hypothermia. Format: in vivo. As to conditions: doses between 0,5 and 1g par kg per os.
Excerpt: as §1
5. Réduction de l'hypothermie réserpinique

Data set [7] has the same test system. The data set can be described thus: Motor activity. Format: in vivo.
Excerpt: as §1
Ce test a montré que l'adminitration à des souris du sel conforme à l'invention, provoque une augmentation de leur activité motrice.

The test system is the same in data set [8]. The data set can be described thus: Reduction of barbiturate narcosis. Format: in vivo.
Excerpt: as §1
4. Réduction de la narcose barbiturique
Les résultats de ce test se sont avérés positifs, chez la souris.

For a further data set, the system named is rats. The data set can be described thus: 30-day daily treatment toxicity. As to conditions: daily treatment 30 days, doses up to 1g par kg et par jour. Format: in vivo. From the text: Un groupe de rats a été soumis à un traitement quotidien par le sel acide de calcium de l'acide 2-oxo-1,5- pentane dioique pendant une durée de 30 jours.
For data set [9], the system named is système nerveux central de la souris. The experiment in a line: Hole-board test. Format: in vivo.
Excerpt: as §1
6. Test de la planche à trous
Sur une planche percée de trous, la souris, parcourant la surface, explore les divers trous rencontrés.

In the next data set the test system is patient. The experiment in a line: Clinical test: corrective effects on hypoxia (chamber, 12,5% O2). Format: in vivo, homme. Particulars: acute dose 12g per os, hypoxia at 12,5% O2. An excerpt:
1. Effets correctifs du sel acide de calcium de l'acide 2-oxo 1,5-pentane dioïgue sur l'hypoxie
Le test est réalisé sur le patient après le passage de celui-ci en caisson sous une hypoxie à 12,5% d'O2.

The nature of data set [10]: Tests on the acid lithium salt (pharmacological and therapeutic properties). As to conditions: compared with the calcium salt.
Data set [11] is described as follows: Solubility in water at 20°C. Format: physicochemical. Particulars: lithium salt.

For the substance “sel de calcium acide de l'acide 2-oxo-1,5- pentane dioïque”, in data set [1], the “antagonisme du CPZ (rotarod)” value is “antagonisme du CPZ”. Further, the entries for the “réduction (myorelaxation induite par la chlorpromazine)” value in data set [2] (dose 1g par kg) and in data set [2] (dose 2g par kg) were 37,5% and 62,5%, respectively. The “activité catatonique de la prochlorpémazine” value in data set [3] was “s'oppose”. Further, the “efficacité à l'égard des troubles de la mémoire, états névrotiques (anxiophobiques) et états psychasténiques” value in the data set on patients was “excellente efficacité”. Also, in data set [4], the “passage à travers la barrière hématoencéphalique” value is on record as “passage de la molécule à travers la barrière hématoencéphalique”. Moreover, the “principal métabolite d'élimination” value in data set [4] is “acide glutamique”. Further, the “conversion au niveau cérébral” value in [4] (in the brain) is reported as “conversion de celle-ci en acide gamma-aminobutyrique (GABA)”. Further, the “ptosis réserpinique” value in [5] is “réduit de façon significative”. The “réduction de l'hypothermie réserpinique” value in [6] is listed as “résultats positifs”. In addition, in [7], the activité motrice entry is “augmentation”. Moreover, the “réduction de la narcose barbiturique” value in [8] is recorded as “positifs”. Further, in the data set with rats, the “anomalie dans les constantes biologiques, hématologiques et les examens histologiques de différents viscères” value was “Aucune anomalie”. For the same substance, the “exploration (planche à trous) sous méprobamate” value in data set [9] (after a single treatment, méprobamate-induced decrease of exploration) was “inhibition de la diminution d'exploration”. The “activité exploratrice (planche à trous)” value in data set [9] (after three days of pretreatment, versus control animals) is “augmentation notable”. The “effet correctif sur l'hypoxie” value in the data set with patient is given as “activateur efficace capable de contrebalancer l'effet d'une hypoxie”.
On to “sel acide de lithium de l'acide 2-oxo-1,5- pentane dioïque [sel de lithium acide]”, for which, in data set [10], the “propriétés pharmacologiques et thérapeutiques” value was “comparables à celles du sel de calcium”. Besides, in data set [11], the “solubilité dans l'eau à 20°C” value is on record as 5,5 % en poids.

Source of the values: patent EP0073711A1, “Salts of 2-oxopentane-1,5-dicarboxylic acid, their preparation and pharmaceutical preparations containing these salts” (S.A. D[…] LEBAS (Société Anonyme), priority 1981, dated 1983).
